Laboratory results as given in PubChem BioAssay AID449750 (Broad Institute, 2010).
Calls of active or inactive are those of the source. The rule behind the calls is not given here.

Experiment: non-covalent RecA intein splicing inhibitors, dose response, biochemical, cell-free, fluorescence, secondary screen (AID 449750)

Q: Which AC50 does the source give for `O=C1C(Nc2ccccc2)=C(N2CCCCC2)C(=O)c2ccccc21` here?
A: Its AC50 is 12.6 µM.

Q: For `CCOc1ccc(NC(=O)C(c2ccccn2)N(C(=O)CCl)c2ccc(F)cc2)cc1` (centres undefined), which AC50 is on record?
A: Its AC50 is 36.2 µM.

Q: Which AC50 does the source give for `c1coc(-c2nnc(-c3ccco3)nn2)c1` here?
A: Its AC50 is 12.8 µM.

Q: For `Cn1c2c(c(=O)n(C)c1=O)[C@@]1(C(=O)Nc3ccccc31)C(C#N)=C(N)O2`, which AC50 is on record?
A: Its AC50 is > 38 µM (inactive).

Q: For `O=S(=O)(c1ccc(Cl)cc1)c1snnc1-c1ccccc1`, which AC50 is on record?
A: The AC50 was > 38 µM (inactive).

Q: With `O=C(NC1(O)C(=O)c2ccccc2C1=O)c1ccccc1` as the molecule, how does the AC50 read?
A: The AC50 was 9.46 µM.

Q: For `Cc1cccc(Cn2ncc(Cl)c(Cl)c2=O)c1`, which AC50 is on record?
A: The AC50 was 18 µM.

Q: Which AC50 does the source give for `Cc1[nH]n(-c2ccccc2)c(=O)c1C(c1ccccc1[N+](=O)[O-])C(C#N)C#N` (centres undefined) here?
A: Its AC50 is 9.48 µM.

Q: For `CSCCC1C(C#N)=C(N)Oc2n[nH]c(-c3cccs3)c21` (centres undefined), which AC50 is on record?
A: Its AC50 is 11.4 µM.

Q: For `Cc1ccc(C(=O)N/N=C\c2cc(Br)c(Br)o2)cn1`, which AC50 is on record?
A: Its AC50 is 15.7 µM.

Q: With `COc1cc(C2CC(c3cccs3)=NN2C(=O)CCl)ccc1OC(F)F` (centres undefined) as the molecule, how does the AC50 read?
A: The AC50 was > 38 µM (inactive).

Q: Which AC50 does the source give for `O=C(/C=C/c1cccs1)Nc1scc(-c2ccccc2)c1C(=O)O` here?
A: Its AC50 is 23.7 µM.

Q: Which AC50 does the source give for `CCOC(=O)c1nnc(-c2ccccc2)nc1Sc1c(Cl)cccc1Cl` here?
A: Its AC50 is > 38 µM (inactive).

Q: Which AC50 does the source give for `O=C(Oc1ccc(Br)cc1C(=S)N1CCOCC1)c1cccc([N+](=O)[O-])c1` here?
A: The AC50 was > 38 µM (inactive).

Q: For `Cc1ccc(N2C(=O)C(Cl)=C(NCCO)C2=O)c(C)c1`, which AC50 is on record?
A: The AC50 was > 38 µM (inactive).

Q: With `CCOC(=O)c1c(C)sc2c1N(C(=O)CCl)c1cc(Cl)ccc1S2` as the molecule, how does the AC50 read?
A: The AC50 was 3.37 µM.

Q: Which AC50 does the source give for `CCSc1c([N+](=O)[O-])c(=O)n(-c2ccccc2)c2ccccc12` here?
A: The AC50 was > 38 µM (inactive).

Q: Which AC50 does the source give for `COc1cccc(C(c2c(C)[nH]n(-c3ccccc3)c2=O)c2c(C)[nH]n(-c3ccccc3)c2=O)c1OC` here?
A: The AC50 was 2.19 µM.

Q: For `O=C1C=C(N2CCOCC2)c2ccccc2C1=O`, which AC50 is on record?
A: The AC50 was 4.51 µM.

Q: With `COc1cccc(-c2[nH]nc3c2C(c2ccc(C)o2)C(C#N)=C(N)O3)c1` (centres undefined) as the molecule, how does the AC50 read?
A: Its AC50 is 26.2 µM.

Q: For `CCCc1[nH]nc2c1C(c1ccc(OC(=O)N3CCOCC3)c(OC)c1)C(C#N)=C(N)O2` (centres undefined), which AC50 is on record?
A: The AC50 was > 38 µM (inactive).

Q: Which AC50 does the source give for `COC(=O)c1nc(NC(=O)c2ccc(C(C)(C)C)cc2)n[nH]1` here?
A: The AC50 was > 38 µM (inactive).

Q: Which AC50 does the source give for `O=C(NC1C(=O)NNC1c1ccc(Cl)cc1)c1ccc(F)cc1` (centres undefined) here?
A: Its AC50 is > 38 µM (inactive).

Q: With `COc1ccccc1-c1cc(C(F)(F)F)nc(S(=O)(=O)CCCC(=O)N2CCCCC2C)n1` (centres undefined) as the molecule, how does the AC50 read?
A: Its AC50 is > 38 µM (inactive).

Q: Which AC50 does the source give for `Cc1ccc(C2=NN(C(=O)CCl)C(c3cccs3)C2)o1` (centres undefined) here?
A: Its AC50 is > 38 µM (inactive).

Q: With `Cc1nnc(Sc2cc(NCCO)c([N+](=O)[O-])c3nonc23)s1` as the molecule, how does the AC50 read?
A: The AC50 was > 38 µM (inactive).

Q: For `N#C/C(=C/c1ccc2c(c1)OCO2)C(=O)Nc1ccc(O)cc1`, which AC50 is on record?
A: Its AC50 is > 38 µM (inactive).

Q: Which AC50 does the source give for `CC1=NNC(=O)C1C(c1ccccc1)C1C(=O)NN=C1C` (centres undefined) here?
A: Its AC50 is 6.67 µM.

Q: With `COC(=O)c1c(NC(=O)/C=C/C(=O)O)sc(Cc2ccccc2)c1C` as the molecule, how does the AC50 read?
A: The AC50 was 2.33 µM.

Q: With `COc1ccccc1NC(=O)C1=C(C)Nc2nnnn2C1c1ccncc1` (centres undefined) as the molecule, how does the AC50 read?
A: Its AC50 is > 38 µM (inactive).

Q: For `CCN1CCN(C(c2cccnc2)c2cc(Cl)c3cccnc3c2O)CC1` (centres undefined), which AC50 is on record?
A: Its AC50 is 16 µM.

Q: With `O=C1C(Cl)=C(NS(=O)(=O)c2ccc([N+](=O)[O-])cc2)C(=O)c2ccccc21` as the molecule, how does the AC50 read?
A: The AC50 was 10.3 µM.

Q: With `COc1ccc(S(=O)(=O)Nc2c(O)ccc3ccccc23)cc1OC` as the molecule, how does the AC50 read?
A: Its AC50 is 22.9 µM.

Q: For `CCc1ccc(/C=C/C(=O)C2C(=O)c3ccccc3C2=O)cc1`, which AC50 is on record?
A: Its AC50 is 7.06 µM.

Q: With `COc1ccc(OC)c(N2C(=O)C(Cl)=C(N3CCOCC3)C2=O)c1` as the molecule, how does the AC50 read?
A: Its AC50 is > 38 µM (inactive).

Q: Which AC50 does the source give for `CN1CCN(C(c2ccc(Br)cc2)c2cc(Cl)c3cccnc3c2O)CC1` (centres undefined) here?
A: Its AC50 is 5.33 µM.

Q: For `O=C(CCl)Nc1cc(-c2ccccc2)nn1-c1ccccc1`, which AC50 is on record?
A: The AC50 was 9.05 µM.

Q: With `CC1CCCCC1NC(=O)NC(=O)CCl` (centres undefined) as the molecule, how does the AC50 read?
A: Its AC50 is 39.8 µM.

Q: Which AC50 does the source give for `Nc1ccc(Nc2ccccc2N)cc1` here?
A: Its AC50 is 16 µM.

Q: With `CCOc1cc(C(c2c(C)[nH][nH]c2=O)c2c(C)[nH][nH]c2=O)cc(Cl)c1O` as the molecule, how does the AC50 read?
A: Its AC50 is > 38 µM (inactive).

Q: Which AC50 does the source give for `O=C1/C(=C/c2ccc(F)cc2)SC(=S)N1CC(=O)N1CCCCC1c1cccnc1` (centres undefined) here?
A: The AC50 was 38.4 µM.

Q: For `CC(=O)n1cc(N(C(=O)CCl)c2ccc([N+](=O)[O-])cc2)c2ccccc21`, which AC50 is on record?
A: Its AC50 is 4.74 µM.

Q: Which AC50 does the source give for `CC1=NN(c2ccccc2)C(=O)/C1=C/c1c(O)n(-c2ccc(F)c(Cl)c2)[nH]c1=O` here?
A: The AC50 was 10.3 µM.

Q: With `O=C(NNC(=O)c1ccc([N+](=O)[O-])o1)c1ccccc1` as the molecule, how does the AC50 read?
A: Its AC50 is 33.6 µM.

Q: For `Cc1cccc(CS(=O)(=O)c2ncc(Cl)c(C(=O)Nc3nnc(C(C)C)s3)n2)c1`, which AC50 is on record?
A: Its AC50 is 2.13 µM.

Q: With `CCCCN(C(=O)c1cccc2c(=O)c(C)c(-c3ccccc3)oc12)c1ccccc1` as the molecule, how does the AC50 read?
A: The AC50 was 6.5 µM.

Q: Which AC50 does the source give for `Oc1cccc(C=Nc2cccc3ccccc23)c1O` here?
A: Its AC50 is 4.42 µM.

Q: With `COc1ccc(/C=C2/C(=O)N(c3ccccc3)N=C2C)cc1OC` as the molecule, how does the AC50 read?
A: The AC50 was 5.49 µM.

Q: Which AC50 does the source give for `CC(=O)NCCn1c(SCc2ccccc2C)nc2ccccc2c1=O` here?
A: Its AC50 is > 38 µM (inactive).

Q: For `Cc1ccc(N(CCC#N)C(=O)CCl)cc1C`, which AC50 is on record?
A: Its AC50 is 11.5 µM.

Q: For `COCC(C)NC(=O)CCS(=O)(=O)c1nc(-c2ccc(OC)cc2)cc(C(F)(F)F)n1` (centres undefined), which AC50 is on record?
A: The AC50 was > 38 µM (inactive).

Q: With `S=C1NCCC12C(=S)Nc1ccccc12` (centres undefined) as the molecule, how does the AC50 read?
A: The AC50 was > 38 µM (inactive).

Q: Which AC50 does the source give for `O=C(N/N=C/c1ccc([N+](=O)[O-])o1)c1ccccc1NS(=O)(=O)c1cccs1` here?
A: The AC50 was > 38 µM (inactive).

Q: For `CC1(N2CCOCC2)CC2(O)C(=[N+]1[O-])CCc1nonc12` (centres undefined), which AC50 is on record?
A: The AC50 was 36.5 µM.
